This is an account of results in patent publication US11426426B2, “Pharmaceutical composition for preventing or treating inflammatory diseases, containing nitrogen monoxide-sensitive acrylamide-based polymer” (POSTECH ACADEMY-INDUSTRY FOUNDATION, priority 2018, dated 2022).

For one series, the system named is red blood cells. The experiment in a line: Evaluation of hemolysis. The following applies: 1 mg/mL in DPBS; 1×10^8 mouse red blood cells; 4 hours at 37° C.; absorbance at 450 nm. Format: cell-based, mice. The protocol:
In order to check whether the nitric oxide-sensitive hydrogel has in vivo stability after being administered into the body, first, red blood cells were separated from the blood collected from mice. A DPBS solution including 1 mg/mL Example 1, the nitric oxide-cleavable crosslinker (NOCCL), and acrylamide was introduced into 1×10^8 cells of the red blood cells thus prepared, and the mixture was thoroughly mixed. This solution was left to stand for 4 hours in a constant temperature tank at 37° C. Next, the solution was centrifuged, subsequently the supernatant was transferred onto a 96-well plate, and the absorbance at 450 nm was measured to calculate the degree of hemolysis.

Series [1] can be described thus: Nitric oxide scavenging ability (Griess reagent). As for the experimental part: In order to check whether the nitric oxide-cleavable crosslinker (NOCCL) produced according to Production Example 1 can actually scavenge nitric oxide, Griess reagent was used, and 100 μM nitric oxide and 10 μM nitric oxide were treated to check the scavenging ability of the nitric oxide-cleavable crosslinker. At this time, N,N′-methylene bisacrylamide (BIS) was used as a comparative group, and water was used as a control group.

Take `C=CC(N)=O` [acrylamide]: the degree of hemolysis entry with red blood cells is “up to 99%”.
In the case of `C=CC(=O)Nc1ccc(NC(=O)C=C)c(N)c1` [nitric oxide-cleavable crosslinker, N,N-(2-amino-1,4-phenylene) diacrylamide], in the series on red blood cells, the degree of hemolysis result is listed as “did not cause hemolysis”. Further, the “nitric oxide scavenged as compared to the comparative group” value in series [1] (100 μM and 10 μM nitric oxide, comparative group BIS) was at least 30%. In addition, in series [1] (high concentration (100 μM) of nitric oxide), the “nitric oxide scavenging ability” value was at least 50%.
